Patent US11530237B2, “Compositions and methods for treating CNS disorders” (Sage Therapeutics, Inc., priority 2014, dated 2022)

Tests used:
α1β2γ2 GABAA receptors = α1β2γ2 GABAA receptors (Homo sapiens (Human), UniProt P14867+P47870); experiment: Patch clamp electrophysiology (QPatch) of recombinant α1β2γ2 GABAA receptors in LTK cells; type: cell-based; details: 10 μM test article, GABA EC20 = 2 μM, read-out: GABA (α1β2γ2) Qpatch in Ltk, % efficacy at 10 μM
Description: (§1) Cellular electrophysiology is used to measure the pharmacological properties of our GABAA receptor modulators in heterologous cell systems. Each compound is tested for its ability to affect GABA mediated currents at a suhmaximal agonist dose (GABA EC20=2 μM). LTK cells are stably transfected with the α1β2γ2 subunits of the GABA receptor and CHO cells are transiently transfected with the α4β3δ subunits via the Lipofecatamine method. Cells were passaged at a confluence of about 50-80% and then seeded onto 35 mm sterile culture dishes containing 2 ml culture complete medium without antibiotics or antimycotics. Confluent clusters of cells are electrically coupled (Pritchett et al., Science, 1988, 242, 1306-1308). Because responses in distant cells are not adequately voltage clamped and because of uncertainties about the extent of coupling (Verdoom et al., Neuron 1990, 4, 919-928), cells were cultivated at a density that enables the recording of single cells (without visible connections to other cells).
(§2) Whole cell currents were measured with HEKA EPC-10 amplifiers using PatchMaster software or by using the high throughput QPatch platform (Sophion). Bath solution for all experiments contained (in mM): NaCl 137 mM, KCl 4 mM, CaCl2 1.8 mM, MgCl2 1 mM, HEPES 10 mM, D-Glucose 10 mM, pH (NaOH) 7.4. In some cases 0.005% cremophor was also added. Intracellular (pipette) solution contained: KCl 130 mM, MgCl2 1 mM, Mg-ATP 5 mM, HEPES 10 mM, EGTA 5 mM, pH 7.2. During experiments, cells and solutions were maintained at room temperature (19° C.-30° C.). For manual patch clamp recordings, cell culture dishes were placed on the dish holder of the microscope and continuously perfused (1 ml/min) with bath solution. After formation of a Gigaohm seal between the patch electrodes and the cell (-ipette resistance range: 2.5 MΩ-6.0 MΩ; seal resistance range:>1 GΩ) the cell membrane across the pipette tip was ruptured to assure electrical access to the cell interior (whole-cell patch-configuration). For experiments using the QPatch system, cells were transferred as suspension to the QPatch system in the bath solution and automated whole cell recordings were performed.
(§3) Cells were voltage clamped at a holding potential of −80 mV. For the analysis of test articles, GABA receptors were stimulated by 2 μM GABA after sequential pre-incubation of increasing concentrations of the test article. Pre-incubation duration was 30 s and the duration of the GABA stimulus was 2s. Test articles were dissolved in DMSO to form stock solutions (10 mM). Test articles were diluted to 0.01, 0.1, 1, and 10 μM in bath solution. All concentrations of test articles were tested on each cell. The relative percentage potentiation was defined as the peak amplitude in response to GABA EC20 in the presence of the test article divided by the peak amplitude in response to GABA EC20 alone, multiplied by 100. For Table 2. GABAA receptors α1β2γ2 and α4β3δ% efficacy: “A” 10-100, “B”>100-500, “C”>500; D indicates the data is not available or has not been determined.

α4β3δ GABAA receptors = α4β3δ GABAA receptors (Homo sapiens (Human), UniProt P28472+P48169); experiment: Patch clamp electrophysiology (manual patch) of recombinant α4β3δ GABAA receptors in CHO cells; type: cell-based; details: 10 μM test article, GABA EC20 = 2 μM, read-out: GABA (α4β3δ) Manual patch in CHO, % efficacy at 10 μM
Description: as §1, §2, §3

PTZ-treated mice = experiment: Acute PTZ method (pentylenetetrazol-induced seizure assay); type: in vivo; details: Mus musculus, lowest dose with significant effect on latency to tonic seizures, PO, read-out: Anticonvulsive Effect Dose (minimal effective anticonvulsant dose)
Description: The anticonvulsant effect of test compounds were assessed in a pentylenetetazol-induced seizure assay in mice similar to methods described in Giardina & Gasior (Curr Protoc Pharmacol. 2009). Male CD-1 mice were housed in groups of five under controlled conditions (temperature of 22±2° C. and 12:12 light-dark cycle, lights on at 8:00 am) and water and food were available ad libitum. The mice were housed for 1 week prior to behavioral testing, at which time they weighed 25-35 g. Pentylenetetrazol (PTZ, Sigma) was dissolved in sterile 0.9% saline at a concentration of 12 mg/mL concentration for subcutaneous administration. Test compounds were formulated and administered via oral gavage or intraperitoneal injection at a predetermined time-point (typically 30 or 60 minutes) prior to PTZ injection. All solutions were made fresh and given in a volume corresponding to 10 ml/kg body weight.
Mice were acclimated to the test room for at least 30 min before compound administration. Mice were randomized into at least four test groups (vehicle and at least three doses of the test compound) with 10 mice per group. […] Following the drug pretreatment time the mice were injected s.c. with PTZ (120 mg/kg). Immediately following the PTZ injection, mice were individually placed into observation chambers (25×15×15 cm) and a three-channel timer was started. Each mouse was continuously observed for 30 min and the following behaviors were recorded by observers blinded to the treatments: 1) latency to clonic convulsions that persist for 3 sec and followed by an absence of righting reflex 2) latency to tonic convulsions, characterized by the rigid extension of all four limbs that exceeded a 90 degree angle with the body 3) latency to death 4) number of clonic and tonic convulsions. Data are presented as mean±S.E.M and one-way ‘nalysis of vari’nce with Dunnett's or Bonferroni's post-hoc test was used to detect significant differences in latency and number between the vehicle and dose group, p values<0.05 were regarded as statistically significant.

SMILES | Emax at 10 µM (α1β2γ2 GABAA receptors) [%] | Emax at 10 µM (α4β3δ GABAA receptors) [%] | minimal effective dose (PTZ-treated mice) [mg/kg]
CO[C@H]1C[C@@]2(C)[C@@H](CC[C@@H]3[C@@H]2CC[C@]2(C)[C@@H](C(=O)Cn4nccn4)CC[C@@H]32)C[C@@H]1O [Compound 2] | 100 to 500 | 100 to 500 | 
C[C@@]1(O)CC[C@@]2(C)[C@H](CC[C@@H]3[C@@H]2CC[C@]2(C)[C@@H](C(=O)Cn4ccc(C(F)(F)F)n4)CC[C@@H]32)C1 [Compound 19] |  |  | ≤ 1
C[C@@]1(O)CC[C@@]2(C)[C@H](CC[C@@H]3[C@@H]2CC[C@]2(C)[C@@H](C(=O)Cn4nc5cc(F)cc(F)c5n4)CC[C@@H]32)C1 [Compound 28] |  |  | ≤ 1
Cc1nnnn1CC(=O)[C@H]1CC[C@H]2[C@@H]3CC[C@@H]4C[C@](C)(O)CC[C@]4(C)[C@H]3CC[C@]12C [Compound 31] |  |  | ≥ 5
Cc1nnn(CC(=O)[C@@H]2CC[C@H]3[C@@H]4CC[C@@H]5C[C@](C)(O)CC[C@]5(C)[C@H]4CC[C@]23C)n1 [Compound 32] |  |  | ≤ 1
C[C@@]1(O)CC[C@@]2(C)[C@H](CC[C@@H]3[C@@H]2CC[C@]2(C)[C@@H](C(=O)Cn4ncnn4)CC[C@@H]32)C1 [Compound 54] |  |  | 1 to 5
C[C@@]1(O)CC[C@@]2(C)[C@@H](CC[C@@H]3[C@@H]2CC[C@]2(C)[C@@H](C(=O)Cn4ncnn4)CC[C@@H]32)C1 [Compound 118] | 100 to 500 | > 500 | 
C[C@@]1(O)CC[C@@]2(C)[C@@H](CC[C@@H]3[C@@H]2CC[C@]2(C)[C@@H](C(=O)Cn4ccc(C#N)n4)CC[C@@H]32)C1 [Compound 121] | > 500 | > 500 | 
C[C@@]1(O)CC[C@@]2(C)[C@@H](CC[C@@H]3[C@@H]2CC[C@]2(C)[C@@H](C(=O)Cn4nnc5cc(F)c(F)cc54)CC[C@@H]32)C1 [Compound 124] | 100 to 500 | > 500 | 
C[C@@]1(O)CC[C@@]2(C)[C@H](CC[C@@H]3[C@@H]2CC[C@]2(C)[C@@H](C(=O)Cn4cc(Cl)cn4)CC[C@@H]32)C1 [Compound 133] | 100 to 500 | > 500 | 
C[C@@]1(O)CC[C@@]2(C)[C@H](CC[C@@H]3[C@@H]2CC[C@]2(C)[C@@H](C(=O)Cn4cc(C(F)(F)F)cn4)CC[C@@H]32)C1 [Compound 134] | > 500 | > 500 | 
COC[C@@]1(O)CC[C@@]2(C)[C@@H](CC[C@@H]3[C@@H]2CC[C@]2(C)[C@@H](C(=O)Cn4cc(C#N)cn4)CC[C@@H]32)C1 [Compound 142] | > 500 | > 500 | 
C[C@@]1(O)CC[C@@]2(C)[C@H](CC[C@@H]3[C@@H]2CC[C@]2(C)[C@@H](C(=O)Cn4ccnc4C#N)CC[C@@H]32)C1 [Compound 143] | > 500 | > 500 | 
COC[C@@]1(O)CC[C@@]2(C)[C@@H](CC[C@@H]3[C@@H]2CC[C@]2(C)[C@@H](C(=O)Cn4nnnc4C)CC[C@@H]32)C1 [Compound 193] | > 500 | > 500 | 1 to 5
COC[C@@]1(O)CC[C@@]2(C)[C@@H](CC[C@@H]3[C@@H]2CC[C@]2(C)[C@@H](C(=O)Cn4nnc(C)n4)CC[C@@H]32)C1 [Compound 194] |  | > 500 | ≤ 1
Cc1nnn(CC(=O)[C@H]2CC[C@H]3[C@@H]4CC[C@H]5C[C@](C)(O)CC[C@]5(C)[C@H]4CC[C@]23C)n1 [Compound 206] |  | > 500 | ≤ 1
C[C@@]1(O)CC[C@@]2(C)[C@H](CC[C@@H]3[C@@H]2CC[C@]2(C)[C@@H](C(=O)Cn4nccn4)CC[C@@H]32)C1 [Compound 207] |  | > 500 | ≥ 5
C[C@@]1(O)CC[C@@]2(C)[C@@H](CC[C@@H]3[C@@H]2CC[C@]2(C)[C@@H](C(=O)Cn4nc5cc(F)cc(F)c5n4)CC[C@@H]32)C1 [Compound 234] |  | 100 to 500 | 
